Laboratory results: ChEMBL document CHEMBL1201862, “PubChem BioAssay data set” (2004)
Active and inactive are the calls of the source.

Assays:
[1] = target: Induced myeloid leukemia cell differentiation protein Mcl-1 (Homo sapiens, UniProt Q07820); type: functional
[2] = target: Prothrombin (Bos taurus, UniProt P00735); test: thrombin protease inhibitors – biochemical, fluorescence polarization, uHTS hits, dose response (AID 602369); type: functional
[3] = target: 26S proteasome non-ATPase regulatory subunit 14 (Homo sapiens, UniProt O00487); test: inhibition of proteasome subunit RPN11 – biochemical, fluorescence polarization, uHTS hits, confirmation (AID 602368); type: functional
Chain of 26S proteasome non-ATPase regulatory subunit 14 (O00487 whole entry): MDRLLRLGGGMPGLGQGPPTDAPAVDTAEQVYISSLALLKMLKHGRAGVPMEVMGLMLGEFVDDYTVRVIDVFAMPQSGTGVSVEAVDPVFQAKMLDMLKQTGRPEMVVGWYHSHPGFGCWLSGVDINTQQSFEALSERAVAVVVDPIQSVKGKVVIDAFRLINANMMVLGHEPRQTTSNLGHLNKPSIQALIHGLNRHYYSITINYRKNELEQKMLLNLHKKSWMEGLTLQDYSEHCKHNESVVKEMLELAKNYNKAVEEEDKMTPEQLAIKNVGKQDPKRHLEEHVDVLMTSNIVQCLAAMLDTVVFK

[4] = target: 72 kDa type IV collagenase (Homo sapiens, UniProt P08253); test: Dose Response validation of uHTS RPN11 inhibitor hits using a MMP-2 Fluorescence assay.; type: functional
Chain of 72 kDa type IV collagenase (P08253 whole entry): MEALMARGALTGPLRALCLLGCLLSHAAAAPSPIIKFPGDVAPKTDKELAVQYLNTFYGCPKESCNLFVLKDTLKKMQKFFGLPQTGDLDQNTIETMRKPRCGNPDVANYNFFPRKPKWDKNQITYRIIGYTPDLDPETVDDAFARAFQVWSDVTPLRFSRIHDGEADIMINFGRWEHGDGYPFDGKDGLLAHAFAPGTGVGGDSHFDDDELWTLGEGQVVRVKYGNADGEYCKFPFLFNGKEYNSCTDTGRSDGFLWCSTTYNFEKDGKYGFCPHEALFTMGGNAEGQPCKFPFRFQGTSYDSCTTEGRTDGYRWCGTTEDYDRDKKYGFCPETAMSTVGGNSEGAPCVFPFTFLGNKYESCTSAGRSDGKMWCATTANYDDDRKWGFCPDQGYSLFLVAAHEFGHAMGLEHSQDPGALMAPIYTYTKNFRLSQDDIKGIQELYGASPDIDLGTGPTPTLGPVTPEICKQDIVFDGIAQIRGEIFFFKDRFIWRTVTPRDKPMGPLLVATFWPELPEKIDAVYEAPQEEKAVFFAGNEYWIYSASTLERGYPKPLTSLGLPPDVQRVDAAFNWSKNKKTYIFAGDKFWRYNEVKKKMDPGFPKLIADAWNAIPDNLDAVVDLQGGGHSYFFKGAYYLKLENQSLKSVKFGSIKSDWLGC

[5] = target: T1, Neuropeptides B/W receptor type 1 (Homo sapiens, UniProt P48145); test: human NPBW1 receptor blockade, IC50 – cell-based, fluorescence, dose response, set 5, late-stage follow-up (AID 588566); type: functional
T1 sequence (P48145 whole entry): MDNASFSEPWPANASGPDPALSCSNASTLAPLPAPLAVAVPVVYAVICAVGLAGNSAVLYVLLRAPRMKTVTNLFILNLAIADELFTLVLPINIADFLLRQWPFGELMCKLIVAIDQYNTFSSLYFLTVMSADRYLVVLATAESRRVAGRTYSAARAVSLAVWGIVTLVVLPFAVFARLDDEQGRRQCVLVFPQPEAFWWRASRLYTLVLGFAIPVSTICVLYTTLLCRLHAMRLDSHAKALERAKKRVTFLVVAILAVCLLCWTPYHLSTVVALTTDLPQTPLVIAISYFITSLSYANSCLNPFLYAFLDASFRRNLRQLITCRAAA

[6] = target: Melanin-concentrating hormone receptor 1 (Homo sapiens, UniProt Q99705); test: Late-stage fluorescence-based counterscreen for antagonists of the G-protein coupled receptor 7 (GPR7): cell-based dose response assay to identify antagonists of the melanin-concentrating hormone receptor 1 (MCHR1) Set 5.; type: functional
Chain of Melanin-concentrating hormone receptor 1 (Q99705 whole entry): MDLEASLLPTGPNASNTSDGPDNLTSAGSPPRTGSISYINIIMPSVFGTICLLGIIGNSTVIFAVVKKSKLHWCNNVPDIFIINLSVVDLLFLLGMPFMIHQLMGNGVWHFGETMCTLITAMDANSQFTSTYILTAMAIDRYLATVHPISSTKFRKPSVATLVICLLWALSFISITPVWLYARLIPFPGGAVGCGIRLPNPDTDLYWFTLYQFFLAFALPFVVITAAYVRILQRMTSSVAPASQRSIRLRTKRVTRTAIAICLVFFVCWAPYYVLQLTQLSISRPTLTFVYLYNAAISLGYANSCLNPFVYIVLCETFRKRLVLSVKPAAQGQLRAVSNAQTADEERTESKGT

[7] = target: Tyrosine-protein phosphatase non-receptor type 5 (Homo sapiens, UniProt P54829); test: PTPN5 enzyme inhibition – biochemical, fluorescence intensity, uHTS hits, confirmation (AID 602372); type: functional; settings: read-out: IC50_Mean
Chain of Tyrosine-protein phosphatase non-receptor type 5 (P54829 whole entry): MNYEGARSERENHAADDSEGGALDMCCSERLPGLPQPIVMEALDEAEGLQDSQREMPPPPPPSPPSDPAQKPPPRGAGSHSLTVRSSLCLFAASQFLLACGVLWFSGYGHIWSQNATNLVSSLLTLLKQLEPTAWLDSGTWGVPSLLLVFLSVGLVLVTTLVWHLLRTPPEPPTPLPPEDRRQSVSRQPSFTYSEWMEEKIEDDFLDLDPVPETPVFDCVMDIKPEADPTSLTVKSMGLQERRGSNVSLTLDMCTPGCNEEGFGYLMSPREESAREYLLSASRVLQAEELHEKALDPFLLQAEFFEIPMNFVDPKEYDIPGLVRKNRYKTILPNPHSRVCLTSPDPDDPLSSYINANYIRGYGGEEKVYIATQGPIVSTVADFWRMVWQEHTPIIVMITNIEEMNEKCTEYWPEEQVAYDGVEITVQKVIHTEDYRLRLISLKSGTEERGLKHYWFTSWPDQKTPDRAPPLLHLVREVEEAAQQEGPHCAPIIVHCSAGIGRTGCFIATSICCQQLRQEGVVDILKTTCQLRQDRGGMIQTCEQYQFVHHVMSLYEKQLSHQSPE

[8] = target: Dual specificity protein phosphatase 3 (Homo sapiens, UniProt P51452); test: VHR phosphatase inhibition, dose response, selectivity assay for STEP inhibitor project, biochemical (AID 602374); type: functional; settings: read-out: IC50_Mean
Chain of Dual specificity protein phosphatase 3 (P51452 whole entry): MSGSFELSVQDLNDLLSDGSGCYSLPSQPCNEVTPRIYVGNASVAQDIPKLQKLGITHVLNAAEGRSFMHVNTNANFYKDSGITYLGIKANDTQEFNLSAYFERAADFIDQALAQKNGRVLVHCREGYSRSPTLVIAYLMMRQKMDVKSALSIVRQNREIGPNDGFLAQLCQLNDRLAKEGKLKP

[9] = target: Tyrosine-protein phosphatase non-receptor type 11 (Homo sapiens, UniProt Q06124); test: PTPN11 enzyme inhibitors – biochemical, selectivity assay for STEP inhibitor project, dose response (AID 602367); type: functional; settings: read-out: IC50_Mean
Chain of Tyrosine-protein phosphatase non-receptor type 11 (Q06124 whole entry): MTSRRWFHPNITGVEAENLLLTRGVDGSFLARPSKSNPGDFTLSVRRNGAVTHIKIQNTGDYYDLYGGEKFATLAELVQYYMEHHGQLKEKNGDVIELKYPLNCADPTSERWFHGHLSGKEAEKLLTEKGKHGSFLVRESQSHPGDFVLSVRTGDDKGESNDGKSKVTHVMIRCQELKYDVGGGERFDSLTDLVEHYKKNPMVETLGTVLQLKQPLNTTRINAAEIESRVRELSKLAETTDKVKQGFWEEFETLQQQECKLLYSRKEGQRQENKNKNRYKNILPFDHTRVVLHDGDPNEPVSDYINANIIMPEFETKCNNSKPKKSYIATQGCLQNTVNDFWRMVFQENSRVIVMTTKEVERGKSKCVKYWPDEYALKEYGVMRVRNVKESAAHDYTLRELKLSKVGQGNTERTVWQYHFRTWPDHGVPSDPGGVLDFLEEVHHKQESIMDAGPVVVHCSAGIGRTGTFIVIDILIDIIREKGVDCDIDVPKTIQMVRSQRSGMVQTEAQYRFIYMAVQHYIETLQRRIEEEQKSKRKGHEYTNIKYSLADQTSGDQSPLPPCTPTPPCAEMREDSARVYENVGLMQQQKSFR

[10] = target: Serine/threonine-protein kinase TAO1 (Homo sapiens, UniProt Q7L7X3); type: functional
Chain of Serine/threonine-protein kinase TAO1 (Q7L7X3 whole entry): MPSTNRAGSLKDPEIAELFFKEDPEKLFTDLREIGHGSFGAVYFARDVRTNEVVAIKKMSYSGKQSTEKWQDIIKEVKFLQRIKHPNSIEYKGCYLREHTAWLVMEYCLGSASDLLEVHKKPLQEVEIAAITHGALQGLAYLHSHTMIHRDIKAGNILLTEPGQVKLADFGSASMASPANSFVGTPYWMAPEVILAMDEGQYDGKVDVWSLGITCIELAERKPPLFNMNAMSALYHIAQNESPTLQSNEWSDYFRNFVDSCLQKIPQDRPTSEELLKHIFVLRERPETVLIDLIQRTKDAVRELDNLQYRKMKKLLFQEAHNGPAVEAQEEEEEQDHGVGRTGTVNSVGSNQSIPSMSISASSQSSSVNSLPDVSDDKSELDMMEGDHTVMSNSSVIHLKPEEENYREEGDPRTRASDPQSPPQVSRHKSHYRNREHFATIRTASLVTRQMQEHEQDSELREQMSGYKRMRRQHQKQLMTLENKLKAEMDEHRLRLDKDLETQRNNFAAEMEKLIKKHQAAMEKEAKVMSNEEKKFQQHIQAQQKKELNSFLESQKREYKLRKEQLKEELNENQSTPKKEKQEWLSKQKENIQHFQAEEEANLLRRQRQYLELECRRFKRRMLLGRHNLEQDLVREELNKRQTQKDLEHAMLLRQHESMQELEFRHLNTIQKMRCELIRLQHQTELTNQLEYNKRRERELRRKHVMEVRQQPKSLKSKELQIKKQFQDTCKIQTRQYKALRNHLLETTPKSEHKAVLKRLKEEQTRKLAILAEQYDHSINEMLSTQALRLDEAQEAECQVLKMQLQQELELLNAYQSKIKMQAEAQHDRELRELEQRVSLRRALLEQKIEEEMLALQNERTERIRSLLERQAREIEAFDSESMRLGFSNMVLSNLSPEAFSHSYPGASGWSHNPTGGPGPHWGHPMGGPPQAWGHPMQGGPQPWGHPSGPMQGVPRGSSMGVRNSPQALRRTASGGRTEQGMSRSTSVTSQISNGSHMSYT

[11] = target: Leukocyte tyrosine kinase receptor (Homo sapiens, UniProt P29376); test: Navigating the Kinome. Panel member name: LTK; type: functional
Chain of Leukocyte tyrosine kinase receptor (P29376 whole entry): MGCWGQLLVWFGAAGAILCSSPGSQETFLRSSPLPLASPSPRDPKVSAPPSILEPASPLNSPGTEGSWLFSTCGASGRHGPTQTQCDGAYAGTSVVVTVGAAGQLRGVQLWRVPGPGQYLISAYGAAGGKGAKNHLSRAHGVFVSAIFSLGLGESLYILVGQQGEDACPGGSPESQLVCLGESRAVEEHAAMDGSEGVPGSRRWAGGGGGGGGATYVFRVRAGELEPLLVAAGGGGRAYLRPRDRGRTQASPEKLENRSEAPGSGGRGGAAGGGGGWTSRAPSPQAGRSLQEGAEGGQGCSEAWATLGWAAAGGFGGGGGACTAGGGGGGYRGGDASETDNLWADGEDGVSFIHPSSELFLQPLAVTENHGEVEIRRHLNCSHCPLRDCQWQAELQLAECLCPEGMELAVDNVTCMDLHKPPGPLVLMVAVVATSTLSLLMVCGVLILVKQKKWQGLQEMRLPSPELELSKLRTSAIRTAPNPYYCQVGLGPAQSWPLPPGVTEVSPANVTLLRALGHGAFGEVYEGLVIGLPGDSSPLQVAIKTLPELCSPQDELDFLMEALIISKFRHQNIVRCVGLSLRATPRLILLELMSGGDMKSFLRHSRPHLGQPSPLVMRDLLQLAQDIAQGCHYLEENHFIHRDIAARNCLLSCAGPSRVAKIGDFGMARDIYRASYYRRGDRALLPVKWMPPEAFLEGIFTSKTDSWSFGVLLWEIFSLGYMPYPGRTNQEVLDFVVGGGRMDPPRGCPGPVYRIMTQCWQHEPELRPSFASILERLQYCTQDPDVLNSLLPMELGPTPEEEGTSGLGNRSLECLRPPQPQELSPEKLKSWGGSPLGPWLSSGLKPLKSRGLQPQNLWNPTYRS

[12] = target: T2, Caspase-3 (Homo sapiens, UniProt P42574); test: SAR Analysis of small molecule inhibitors of Sentrin-specific proteases (SENPs) using a Caspase-3 Selectivity assay. [Related pubchem assays (depositor defined):AID2540, AID2599, AID434973, AID489001]; type: functional
T2 sequence (P42574 whole entry): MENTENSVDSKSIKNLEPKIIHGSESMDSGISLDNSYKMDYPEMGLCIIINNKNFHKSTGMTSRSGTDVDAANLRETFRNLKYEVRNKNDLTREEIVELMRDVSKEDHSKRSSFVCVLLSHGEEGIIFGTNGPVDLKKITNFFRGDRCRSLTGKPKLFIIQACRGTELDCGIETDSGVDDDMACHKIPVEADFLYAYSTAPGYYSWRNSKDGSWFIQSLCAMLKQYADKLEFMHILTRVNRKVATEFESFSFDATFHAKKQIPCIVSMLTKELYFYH

[13] = target: T3, Sentrin-specific protease 6 (Homo sapiens, UniProt Q9GZR1); test: SAR Analysis of small molecule inhibitors of Sentrin-specific protease 6 (SENP6) using a Luminescent assay. [Related pubchem assays (depositor defined):AID2582, AID2599]; type: functional
T3 sequence (Q9GZR1 whole entry): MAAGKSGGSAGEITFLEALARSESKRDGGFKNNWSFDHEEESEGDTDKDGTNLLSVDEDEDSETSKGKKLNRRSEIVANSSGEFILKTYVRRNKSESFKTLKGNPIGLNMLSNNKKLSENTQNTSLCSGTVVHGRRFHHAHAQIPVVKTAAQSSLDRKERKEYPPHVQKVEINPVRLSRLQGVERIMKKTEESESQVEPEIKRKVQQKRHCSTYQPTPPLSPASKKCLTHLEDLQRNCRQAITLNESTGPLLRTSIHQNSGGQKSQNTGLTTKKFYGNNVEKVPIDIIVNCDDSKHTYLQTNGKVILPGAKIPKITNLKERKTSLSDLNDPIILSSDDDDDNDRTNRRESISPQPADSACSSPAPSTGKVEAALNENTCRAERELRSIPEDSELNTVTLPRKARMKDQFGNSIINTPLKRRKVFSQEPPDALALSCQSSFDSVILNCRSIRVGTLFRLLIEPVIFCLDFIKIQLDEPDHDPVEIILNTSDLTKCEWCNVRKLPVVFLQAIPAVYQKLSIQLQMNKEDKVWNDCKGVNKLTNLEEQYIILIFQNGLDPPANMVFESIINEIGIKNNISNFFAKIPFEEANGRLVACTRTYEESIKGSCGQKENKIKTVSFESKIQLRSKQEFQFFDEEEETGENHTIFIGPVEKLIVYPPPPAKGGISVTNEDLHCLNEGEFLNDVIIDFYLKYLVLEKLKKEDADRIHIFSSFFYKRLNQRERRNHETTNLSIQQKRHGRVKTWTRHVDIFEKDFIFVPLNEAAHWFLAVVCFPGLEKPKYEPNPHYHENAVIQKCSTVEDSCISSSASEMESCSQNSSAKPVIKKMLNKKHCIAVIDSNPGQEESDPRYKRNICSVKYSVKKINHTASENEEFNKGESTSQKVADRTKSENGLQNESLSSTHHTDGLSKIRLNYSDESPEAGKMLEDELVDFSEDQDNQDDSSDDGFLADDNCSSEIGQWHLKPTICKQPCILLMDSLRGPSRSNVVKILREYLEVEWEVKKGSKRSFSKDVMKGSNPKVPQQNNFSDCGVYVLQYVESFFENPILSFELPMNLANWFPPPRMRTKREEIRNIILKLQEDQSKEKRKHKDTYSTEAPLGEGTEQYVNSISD

[14] = target: T4, Sentrin-specific protease 8 (Homo sapiens, UniProt Q96LD8); test: inhibition of human SENP8 cleavage activity – biochemical, luminescence, SAR follow-up (AID 504501); type: functional
T4 sequence (Q96LD8 whole entry): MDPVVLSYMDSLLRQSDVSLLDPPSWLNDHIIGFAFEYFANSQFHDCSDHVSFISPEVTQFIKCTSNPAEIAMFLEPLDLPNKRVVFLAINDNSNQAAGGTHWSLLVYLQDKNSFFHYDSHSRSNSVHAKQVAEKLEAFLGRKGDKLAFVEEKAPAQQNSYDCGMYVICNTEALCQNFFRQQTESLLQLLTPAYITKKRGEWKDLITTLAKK

[15] = target: T5, Sentrin-specific protease 7 (Homo sapiens, UniProt Q9BQF6); test: inhibition of human SENP7 cleavage activity – biochemical, luminescence, SAR follow-up (AID 504497); type: functional
T5 sequence (Q9BQF6 whole entry): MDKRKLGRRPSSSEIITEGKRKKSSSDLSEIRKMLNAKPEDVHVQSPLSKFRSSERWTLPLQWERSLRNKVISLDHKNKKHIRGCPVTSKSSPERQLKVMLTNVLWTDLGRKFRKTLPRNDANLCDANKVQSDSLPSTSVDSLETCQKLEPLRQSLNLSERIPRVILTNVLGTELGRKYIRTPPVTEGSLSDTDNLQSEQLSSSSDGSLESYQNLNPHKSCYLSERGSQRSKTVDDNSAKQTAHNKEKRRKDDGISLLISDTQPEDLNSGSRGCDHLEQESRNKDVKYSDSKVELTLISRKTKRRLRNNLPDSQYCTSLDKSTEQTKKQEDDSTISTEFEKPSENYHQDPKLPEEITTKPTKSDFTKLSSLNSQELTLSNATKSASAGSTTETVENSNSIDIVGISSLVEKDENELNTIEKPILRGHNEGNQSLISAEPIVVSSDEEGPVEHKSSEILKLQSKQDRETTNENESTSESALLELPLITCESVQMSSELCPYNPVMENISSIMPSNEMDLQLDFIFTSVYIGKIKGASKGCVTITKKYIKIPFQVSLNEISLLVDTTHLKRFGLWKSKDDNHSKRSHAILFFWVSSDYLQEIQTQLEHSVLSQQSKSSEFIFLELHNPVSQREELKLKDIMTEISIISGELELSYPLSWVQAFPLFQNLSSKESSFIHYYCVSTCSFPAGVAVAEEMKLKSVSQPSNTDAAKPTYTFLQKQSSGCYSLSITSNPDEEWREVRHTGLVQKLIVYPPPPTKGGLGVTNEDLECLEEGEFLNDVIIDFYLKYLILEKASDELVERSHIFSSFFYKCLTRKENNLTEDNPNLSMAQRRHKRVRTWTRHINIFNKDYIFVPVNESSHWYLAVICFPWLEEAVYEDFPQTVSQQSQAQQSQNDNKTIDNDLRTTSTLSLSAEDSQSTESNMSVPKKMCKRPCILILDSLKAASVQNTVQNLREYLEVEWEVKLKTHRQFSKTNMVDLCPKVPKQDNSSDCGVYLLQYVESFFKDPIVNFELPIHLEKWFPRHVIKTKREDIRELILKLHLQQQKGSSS

[16] = target: T6, Insulin-degrading enzyme (Homo sapiens, UniProt P14735); test: recombinant IDE activation, cell-free – biochemical, fluorescence polarization, counter-screen for IDE activator project, dose response (AID 588681)
T6 sequence (P14735 whole entry): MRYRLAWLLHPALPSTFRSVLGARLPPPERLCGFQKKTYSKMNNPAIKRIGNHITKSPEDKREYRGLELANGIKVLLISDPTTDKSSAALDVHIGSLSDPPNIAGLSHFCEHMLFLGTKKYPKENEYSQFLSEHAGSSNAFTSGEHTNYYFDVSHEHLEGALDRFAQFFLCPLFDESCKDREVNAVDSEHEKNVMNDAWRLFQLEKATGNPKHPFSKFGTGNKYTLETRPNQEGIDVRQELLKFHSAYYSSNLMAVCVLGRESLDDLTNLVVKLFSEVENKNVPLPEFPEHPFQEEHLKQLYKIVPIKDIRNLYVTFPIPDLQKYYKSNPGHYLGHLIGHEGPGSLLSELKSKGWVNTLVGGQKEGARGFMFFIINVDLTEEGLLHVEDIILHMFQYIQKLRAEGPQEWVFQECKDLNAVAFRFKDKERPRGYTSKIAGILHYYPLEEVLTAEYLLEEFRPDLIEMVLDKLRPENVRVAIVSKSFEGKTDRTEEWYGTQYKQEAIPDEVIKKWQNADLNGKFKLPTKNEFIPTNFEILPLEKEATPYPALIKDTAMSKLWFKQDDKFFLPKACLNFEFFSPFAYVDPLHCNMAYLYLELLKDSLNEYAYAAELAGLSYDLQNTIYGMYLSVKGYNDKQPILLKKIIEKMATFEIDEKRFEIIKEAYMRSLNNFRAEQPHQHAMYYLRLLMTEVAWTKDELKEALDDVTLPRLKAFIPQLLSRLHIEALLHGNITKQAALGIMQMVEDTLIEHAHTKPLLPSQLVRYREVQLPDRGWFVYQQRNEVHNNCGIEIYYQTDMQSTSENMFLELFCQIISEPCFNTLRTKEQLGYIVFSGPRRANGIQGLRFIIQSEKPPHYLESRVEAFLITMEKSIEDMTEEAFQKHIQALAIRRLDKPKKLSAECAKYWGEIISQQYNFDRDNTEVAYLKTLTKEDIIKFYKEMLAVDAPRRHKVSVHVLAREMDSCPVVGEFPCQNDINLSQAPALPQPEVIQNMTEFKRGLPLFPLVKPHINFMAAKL

[17] = target: T6, Insulin-degrading enzyme; test: cellular IDE activation of Abeta substrate cleavage – fluorescence polarization, HEK cells, dose response (AID 588439); type: functional, cell-based
[18] = tested on: HEK293; test: optical interference in Abeta FP readout, dose response, artefact control for IDE activator project, biochemical, fluorescence polarization (AID 588442); type: functional, cell-based; settings: Homo sapiens
[19] = tested on: HEK293; test: membrane integrity loss in HEK cells – cell-based, fluorescence, cytotoxicity control for IDE activator project, dose response (AID 588440); type: functional; settings: Homo sapiens;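 also: cytotoxicity by LDH release measuring loss of membrane integrity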

Chain of Induced myeloid leukemia cell differentiation protein Mcl-1 (Q07820 whole entry): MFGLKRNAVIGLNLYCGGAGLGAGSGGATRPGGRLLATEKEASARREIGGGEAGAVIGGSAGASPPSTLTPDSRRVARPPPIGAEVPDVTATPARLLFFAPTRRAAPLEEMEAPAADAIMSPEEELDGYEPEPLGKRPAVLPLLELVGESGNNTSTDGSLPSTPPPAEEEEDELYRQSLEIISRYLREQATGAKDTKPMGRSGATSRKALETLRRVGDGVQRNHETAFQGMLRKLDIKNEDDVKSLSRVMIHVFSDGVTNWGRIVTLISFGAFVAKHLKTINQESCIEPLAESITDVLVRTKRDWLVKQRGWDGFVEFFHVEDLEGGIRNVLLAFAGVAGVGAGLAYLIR

Structure (SMILES): COc1ccc(/C=C2\C(=O)NC(=S)N2C(=O)c2ccc(C)cc2)cc1
- IC50 [1]: 1.53 µM (not active)
- IC50 [2]: 40.2 µM (active)
- IC50 [3]: 18.8 µM (active)
- IC50 [4]: 20 µM (active)

Structure (SMILES): COc1cc(OC)cc(Oc2c(Cl)cnn(Cc3cccc4ccccc34)c2=O)c1
- IC50 [5]: 10.1 µM (inactive)
- IC50 [6]: > 20 µM (inactive)

Structure (SMILES): CCN1CCN(C(=S)c2ccc(OCC(=O)NCc3ccccc3)cc2)CC1
- IC50 [7]: 45.3 µM (inactive)
- IC50 [8]: 1.92 µM (active)
- IC50 [9]: 3.35 µM (active)

Structure (SMILES): O=C(O)C1CN(Cc2ccc(OCc3ccc(Cl)cc3Cl)cc2)C1
- Ki [10]: 1 µM (active)
- Ki [11]: 2.51 µM (active)

Structure (SMILES): CCCCc1ccc2nc(NC(=O)c3cc(Br)cs3)sc2c1
- IC50 [12]: > 99 µM (inactive)
- IC50 [13]: > 99 µM (inactive)
- IC50 [14]: > 99 µM (inactive)
- IC50 [15]: > 99 µM (inactive)

Structure (SMILES): O=C(/C=C/c1cccs1)Nc1cccc(NC(=O)/C=C/c2cccs2)n1
- IC50 [2]: 45.6 µM (active)
- IC50 [3]: 48.3 µM (active)
- IC50 [4]: > 100 µM (inactive)

Structure (SMILES): CCOc1ccc(Oc2c(N3CCCCC3)c(Br)nn(Cc3cccc4ccccc34)c2=O)cc1
- IC50 [5]: > 20 µM (inactive)
- IC50 [6]: > 20 µM (inactive)

Structure (SMILES): COc1cc(OC)cc(-c2nc(/C=C/c3ccccc3)no2)c1
- IC50 [12]: > 99 µM (inactive)
- IC50 [13]: > 99 µM (inactive)
- IC50 [14]: > 99 µM (inactive)
- IC50 [15]: > 99 µM (inactive)

Structure (SMILES): Cc1cc(Oc2ccc(C#N)cc2)nc(N2CCOCC2)n1
- EC50 [16]: > 54.7 µM (inactive)
- EC50 [17]: > 54.7 µM (inactive)
- EC50 [18]: > 54.7 µM (inactive)
- IC50 [19]: > 89.2 µM (inactive)
